These results are taken from patent US20170275270A1, “BENZYL SUBSTITUTED INDAZOLES” (Bayer Pharma Aktiengesellschaft, priority 2014, published 2017).

Structures can show the parent of a compound that is named as a salt.

The target in the first experiment is T1, catalytic domain of human Bub1 (amino acids 704-1085) (Homo sapiens, UniProt O43683).
T1 construct: catalytic domain of human Bub1 (amino acids 704-1085); His6 (N); made in house; host or cells: Hi5 insect cells
T1 sequence (O43683 704-1085): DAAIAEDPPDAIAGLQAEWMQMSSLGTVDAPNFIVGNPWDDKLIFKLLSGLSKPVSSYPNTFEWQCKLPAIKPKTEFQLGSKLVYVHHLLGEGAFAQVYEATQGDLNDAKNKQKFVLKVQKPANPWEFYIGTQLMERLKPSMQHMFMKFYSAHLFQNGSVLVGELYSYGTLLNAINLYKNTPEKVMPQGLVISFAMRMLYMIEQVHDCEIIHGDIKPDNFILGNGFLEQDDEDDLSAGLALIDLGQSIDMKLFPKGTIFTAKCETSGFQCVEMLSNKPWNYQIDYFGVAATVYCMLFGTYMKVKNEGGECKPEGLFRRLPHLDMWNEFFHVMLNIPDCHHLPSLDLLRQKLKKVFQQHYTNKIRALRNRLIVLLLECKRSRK
Description: Bub1 kinase assay (TR-FRET). The format is biochemical. The following applies: 10 μM ATP, read-out: Biological Assay 1: Bub1 kinase assay median IC50. On the procedure:
To this end, 100-fold concentrated compound solutions (in DMSO) were previously prepared by serial dilution (1:3.4) of 2 mM stocks in a clear low volume 384-well source microtiter plate (Greiner Bio-One, Frickenhausen, Germany), from which 50 nL of compounds were transferred into a black low volume test microtiter plate from the same supplier. […] The resulting mixture (5 μL final volume) was incubated at 22° C. during 60 min., and the reaction was stopped by the addition of 5 μL of an aqueous EDTA-solution (50 mM EDTA, in 100 mM HEPES pH 7.5 and 0.2% (w/v) bovine serum albumin) which also contained the TR-FRET detection reagents (0.2 μM streptavidin-XL665 [Cisbio Bioassays, Codolet, France] and 1 nM anti-phosho-Serine antibody [Merck Millipore, cat. #35-001] and 0.4 nM LANCE EU-W1024 labeled anti-mouse IgG antibody [Perkin-Elmer, product no. AD0077, alternatively a Terbium-cryptate-labeled anti-mouse IgG antibody from Cisbio Bioassays can be used]). The stopped reaction mixture was further incubated 1 h at 22° C. in order to allow the formation of complexes between peptides and detection reagents. Subsequently, the amount of product was evaluated by measurement of the resonance energy transfer from the Eu-chelate-antibody complex recognizing the Phosphoserine residue to the streptavidin-XL665 bound to the biotin moiety of the peptide. […] IC50 values were calculated by fitting the normalized inhibition data to a 4-parameter logistic equation (Minimum, Maximum, IC50, Hill; Y=Max+(Min−Max)/(1+(X/IC50) Hill)).
As a reminder, the IC50 is the point on the concentration scale where inhibition reaches its midpoint. `CCOc1cc(F)c(Cn2nc(-c3ncc(CCN)c(Nc4ccnc(C)c4)n3)c3ccccc32)c(F)c1` [Example 2-9-12, 5-(2-aminoethyl)-2-[1-(4-ethoxy-2,6-difluorobenzyl)-1H-indazol-3-yl]-N-(2-methylpyridin-4-yl)pyrimidin-4-amine, salt with hydrochloric acid]: the 50% inhibitory concentration (IC50) is 4.3 nM.

Regarding `COCCOc1cc(F)c(Cn2nc(-c3nc(Nc4cc(C)ncc4C)cc(C(C)C)n3)c3ccccc32)c(F)c1` [Example 2-12-74, 2-{1-[2,6-difluoro-4-(2-methoxyethoxy)benzyl]-1H-indazol-3-yl}-N-(2,5-dimethylpyridin-4-yl)-6-isopropylpyrimidin-4-amine], the IC50 was found to be 180 nM.

The same experiment, now with this note: Biological Assay 1: Bub1 kinase assay median IC50, 10 μM ATP.
Compound `COCCOc1cc(F)c(Cn2nc(-c3nc(CN4CCOCC4)cc(Nc4ccnc(C(F)F)c4)n3)c3ccccc32)c(F)c1` [Example 2-12-36, 2-{1-[2,6-difluoro-4-(2-methoxyethoxy)benzyl]-1H-indazol-3-yl}-N-[2-(difluoromethyl)pyridin-4-yl]-6-(morpholin-4-ylmethyl)pyrimidin-4-amine] showed an IC50 of 57 nM.

Compound `CCOc1cc(F)c(Cn2nc(-c3ncc(CCOC)c(Nc4ccncc4)n3)c3ccccc32)c(F)c1` [Example 2-2-9, 2-[1-(4-ethoxy-2,6-difluorobenzyl)-1H-indazol-3-yl]-5-(2-methoxyethyl)-N-(pyridin-4-yl)pyrimidin-4-amine] returned an IC50 of 12 nM.

`CC(=O)Nc1cc(Nc2nc(-c3nn(Cc4c(F)cc(OCCO)cc4F)c4ccccc34)nc3c2CCC(C)(C)C3)ccn1` [Example 2-6-42, N-{4-[(2-{1-[2,6-difluoro-4-(2-hydroxyethoxy)benzyl]-1H-indazol-3-yl}-7,7-dimethyl-5,6,7,8-tetrahydroquin-azolin-4-yl)amino]pyridin-2-yl}acetamide]: it took 14 nM to reach half-maximal inhibition (IC50).

In the case of `OCCOc1cc(F)c(Cn2nc(-c3nc4c(c(Nc5ccncn5)n3)CN(CC(F)(F)F)C4)c3ccccc32)c(F)c1` [Example 2-6-40, 2-[3,5-difluoro-4-({3-[4-(pyrimidin-4-ylamino)-6-(2,2,2-trifluoroethyl)-6,7-dihydro-5H-pyrrolo[3,4-d]pyrimidin-2-yl]-1H-indazol-1-yl}methyl)phenoxy]ethanol], the 50% inhibitory concentration (IC50) is 9.3 nM.

For the compound `COCCOc1cc(F)c(Cn2nc(-c3nc4c(c(Nc5ccncn5)n3)CN(CC(F)(F)F)C4)c3ccccc32)c(F)c1` [Example 2-20-18, 2-{1-[2,6-difluoro-4-(2-methoxyethoxy)benzyl]-1H-indazol-3-yl}-N-(pyrimidin-4-yl)-6-(2,2,2-trifluoroethyl)-6,7-dihydro-5H-pyrrolo[3,4-d]pyrimidin-4-amine], half-maximal inhibition (IC50) required 28 nM.

The compound `COCCOc1cc(F)c(Cn2nc(-c3nc4c(c(Nc5ccnc(C)n5)n3)CCC(C)(C)C4)c3ccccc32)c(F)c1` [Example 2-15-9, 2-{1-[2,6-difluoro-4-(2-methoxyethoxy)benzyl]-1H-indazol-3-yl}-7,7-dimethyl-N-(2-methylpyrimidin-4-yl)-5,6,7,8-tetrahydroquinazolin-4-amine] gave a half-maximal inhibitory concentration (IC50) of 81 nM.

Take `COCCOc1cc(F)c(Cn2nc(-c3nc4c(c(Nc5cc(C)ncc5F)n3)CCC4)c3ccccc32)c(F)c1` [Example 2-12-58, 2-{1-[2,6-difluoro-4-(2-methoxyethoxy)benzyl]-1H-indazol-3-yl}-N-(5-fluoro-2-methylpyridin-4-yl)-6,7-dihydro-5H-cyclopenta[d]pyrimidin-4-amine]: the IC50 stood at 17 nM.

Consider `COCCOc1cc(F)c(Cn2nc(-c3nc4c(c(Nc5ccncc5Cl)n3)CCC(C)(C)C4)c3ccccc32)c(F)c1` [Example 2-15-10, N-(3-chloropyridin-4-yl)-2-{1-[2,6-difluoro-4-(2-methoxyethoxy)benzyl]-1H-indazol-3-yl}-7,7-dimethyl-5,6,7,8-tetrahydroquinazolin-4-amine], for which the concentration for half-maximal inhibition (IC50) was determined as 1400 nM.

In turn, `CCOc1cc(F)c(Cn2nc(-c3nc4c(c(Nc5ccncc5C)n3)CSC4)c3ccccc32)c(F)c1` [Example 2-19-2, 2-[1-(4-ethoxy-2,6-difluorobenzyl)-1H-indazol-3-yl]-N-(3-methylpyridin-4-yl)-5,7-dihydrothieno[3,4-d]pyrimidin-4-amine] displayed an IC50 of 25 nM.

`COCCOc1cc(F)c(Cn2nc(-c3ncc(C4CCNCC4)c(Nc4ccnc(NC(C)=O)c4)n3)c3ccccc32)c(F)c1` [Example 2-17-8, N-(4-{[2-{1-[2,6-difluoro-4-(2-methoxyethoxy)benzyl]-1H-indazol-3-yl}-5-(piperidin-4-yl)pyrimidin-4-yl]amino}pyridin-2-yl)acetamide] registered an IC50 of 6.3 nM.

With `CCOc1cc(F)c(Cn2nc(-c3nc4c(c(Nc5ccncc5C5CC5)n3)CCC4)c3ccccc32)c(F)c1` [Example 2-14-8, N-(3-cyclopropylpyridin-4-yl)-2-[1-(4-ethoxy-2,6-difluorobenzyl)-1H-indazol-3-yl]-6,7-dihydro-5H-cyclopenta[d]pyrimidin-4-amine], the half-maximal inhibitory concentration (IC50) worked out at 8.2 nM.

The compound `CCOc1cc(F)c(Cn2nc(-c3nc4c(c(Nc5ccnc(C)c5)n3)CS(=O)(=O)C4)c3ccccc32)c(F)c1` [Example 2-19-5, 2-[1-(4-ethoxy-2,6-difluorobenzyl)-1H-indazol-3-yl]-N-(2-methylpyridin-4-yl)-5,7-dihydrothieno[3,4-d]pyrimidin-4-amine 6,6-dioxide] registered an IC50 of 140 nM.

In turn, `COc1cnccc1Nc1nc(-c2nn(Cc3c(F)cc(OCCO)cc3F)c3ccccc23)nc2c1CCCCC2` [Example 2-6-44, 2-{3,5-difluoro-4-[(3-{4-[(3-methoxypyridin-4-yl)amino]-6,7,8,9-tetrahydro-5H-cyclohepta[d]pyrimidin-2-yl}-1H-indazol-1-yl)methyl]phenoxy}ethanol] came in with an IC50 of 12 nM.

Turning to `CCOc1cc(F)c(Cn2nc(-c3nc(Nc4ccnc(C)n4)cc(-c4sc(C)nc4C)n3)c3ccccc32)c(F)c1` [Example 2-12-84, 6-(2,4-dimethyl-1,3-thiazol-5-yl)-2-[1-(4-ethoxy-2,6-difluorobenzyl)-1H-indazol-3-yl]-N-(2-methylpyrimidin-4-yl)pyrimidin-4-amine], half-maximal inhibition (IC50) required 2300 nM.

For the compound `CCOc1cc(F)c(Cn2nc(-c3ncc(CCCOC)c(Nc4ccncc4)n3)c3ccccc32)c(F)c1` [Example 2-2-11, 2-[1-(4-ethoxy-2,6-difluorobenzyl)-1H-indazol-3-yl]-5-(3-methoxypropyl)-N-(pyridin-4-yl)pyrimidin-4-amine], it took 17 nM to reach half-maximal inhibition (IC50).

`COCCOc1cc(F)c(Cn2nc(-c3nc4c(c(Nc5cc(C)ncc5C)n3)CNC4)c3ccccc32)c(F)c1` [Example 2-9-26, 2-{1-[2,6-difluoro-4-(2-methoxy-ethoxy)benzyl]-1H-indazol-3-yl}-N-(2,5-dimethylpyridin-4-yl)-6,7-dihydro-5H-pyrrolo[3,4-d]pyr-imidin-4-amine] returned an IC50 of 180 nM.

On to `COCCOc1cc(F)c(Cn2nc(-c3ncc(C4CCNCC4)c(Nc4ccncc4Cl)n3)c3ccccc32)c(F)c1` [Example 2-17-9, N-(3-chloropyridin-4-yl)-2-{1-[2,6-difluoro-4-(2-methoxyethoxy)benzyl]-1H-indazol-3-yl}-5-(piperidin-4-yl)pyrimidin-4-amine], for which inhibition was half-maximal at 7.5 nM (IC50).

Turning to `COCCOc1cc(F)c(Cn2nc(-c3nc(CN4CCOCC4)cc(Nc4ccncc4Cl)n3)c3ccccc32)c(F)c1` [Example 2-12-40, N-(3-chloropyridin-4-yl)-2-{1-[2,6-difluoro-4-(2-methoxyethoxy)benzyl]-1H-indazol-3-yl}-6-(morpholin-4-ylmethyl)pyrimidin-4-amine], the IC50 was determined as 10 nM.

`CCOc1cc(F)c(Cn2nc(-c3nc4c(c(Nc5ccncc5Cl)n3)CCC4)c3ccccc32)c(F)c1` [Example 2-14-7, N-(3-chloropyridin-4-yl)-2-[1-(4-ethoxy-2,6-difluorobenzyl)-1H-indazol-3-yl]-6,7-dihydro-5H-cyclopenta[d]pyrimidin-4-amine] came in with an IC50 of 9.7 nM.

With `CCOc1cc(F)c(Cn2nc(-c3nc(CN4CCOCC4)cc(Nc4ccnc(O)c4)n3)c3ccccc32)c(F)c1` [Example 2-12-46, 4-({2-[1-(4-ethoxy-2,6-difluorobenzyl)-1H-indazol-3-yl]-6-(morpholin-4-ylmethyl)pyrimidin-4-yl}amino)pyridin-2-ol], the half-maximal inhibitory concentration (IC50) was determined as 1100 nM.

Take `CCOc1cc(F)c(Cn2nc(-c3nc(Nc4ccncn4)cc(-c4sc(C)nc4C)n3)c3ccccc32)c(F)c1` [Example 2-12-85, 6-(2,4-dimethyl-1,3-thiazol-5-yl)-2-[1-(4-ethoxy-2,6-difluorobenzyl)-1H-indazol-3-yl]-N-(pyrimidin-4-yl)pyrimidin-4-amine]: the half-inhibitory concentration (IC50) was 6000 nM.

`COCCOc1cc(F)c(Cn2nc(-c3nc(CN4CCOCC4)cc(Nc4ccncn4)n3)c3ccccc32)c(F)c1` [Example 2-12-37, 2-{1-[2,6-difluoro-4-(2-methoxyethoxy)benzyl]-1H-indazol-3-yl}-6-(morpholin-4-ylmethyl)-N-(pyrimidin-4-yl)pyrimidin-4-amine]: inhibition was half-maximal at 17 nM (IC50).
